For test [1], the system named is leukocytes in porcine blood. As to the kind of experiment: Microscopic flow chamber: leukocyte interaction with polysulfone membrane. The test is classed as cell-based, pig. An excerpt: A custom microscopic flow chamber system was set up to enable microscopic analysis of leukocyte interaction with the SCD membrane. The flow chamber consisted of a polycarbonate housing with an inlet and outlet for perfusion. A polysulfone membrane was affixed to the polycarbonate block with a gasket which directed shear flow. The thickness of the gasket (100 μm) along with the length (2 cm) and the width of the channel (1.5 mm) determined the volume of the flow chamber. Microscopic imaging was accomplished through an optical window made up of a cover glass affixed to the bottom of the polycarbonate block. Either isolated blood or purified leukocytes were used for this study.
Isolated blood was prone to activation from excessive handling. Thus, 5 mL of fresh heparinized porcine blood was minimally manipulated prior to the flow chamber study. Briefly, leukocytes were fluorescently labeled using 50 μg/mL of Hoechst 33342 dye. Further, the leukocytes were activated by adding 1 μg/ml lipopolysaccharide (LPS) directly to the blood samples. […] Blood passed through the flow chamber at a rate of 20 μL/min with calculated shear forces between 1-10 dynes/cm^2. For each isolated blood sample, sequences were acquired in triplicate.
Microscopic analysis of cell capture events was accomplished using either a Zeiss Axiovert 200M or Axio-Observer epifluorescence microscope equipped with a microscope stage-top incubator to control environmental temperature and CO2 content. Fluorescence images were acquired with either a Zeiss MRm3 or an Icc1 camera at a frequency of 1 frame/second for 5 minutes, for analysis of leukocyte/membrane interaction, and at 1 frame/minute for 1 hour sequences, for analysis of long term leukocyte attachment. Frame by frame evaluation of leukocyte rolling, attachment and detachment of leukocytes was carried out to determine the total number and duration of these phenomena. An attachment event was defined as when a leukocyte appeared in the same location for multiple frames within a sequence. […]

Test [2] deals with leukocytes in human whole blood. Description: In vitro whole blood leukocyte activation assay. It counts as cell-based. Particulars: for CD11b: n = 3; for IL-10: n = 4; for IL-8: n = 5; for IL-6: n = 7. The method, then:
Heparinized human whole blood was added to tubes with or without lipopolysaccharide (LPS) (10 μg/mL) or formyl-Methionyl-Leucyl-Phenylalanine (fMLF, 50 nM). […] The release of IL-6, IL-8, or IL-10 was measured using commercially available ELISA kits from R&D Systems. The release of elastase was measured using a commercially available ELISA kit from Bender MedSystems. The release of lactoferrin was measured using a commercially available ELISA kit from EMD Chemicals. […] Samples were incubated for various times at 37° C. and 5% CO2. CD11b activation was measured using an FITC-conjugated mouse anti-human antibody (AbD Serotech) and evaluated on an Accuri C6 flow cytometer.

As to `O=C(O)CC(O)(CC(=O)O)C(=O)O` [Citrate], the “persistent leukocyte adhesion events” value in test [1] (1 hour sequences, LPS and citrate versus LPS only, preliminary analysis) was “far fewer persistent leukocyte adhesion events”. Besides, the rolling events entry in test [1] (LPS and citrate treated blood) was “increase in rolling events”. Moreover, the “leukocyte attachment to polysulfone membranes during shear flow” value in test [1] (LPS-activated blood, low ionized calcium, FIG. 17) is on record as “statistically significant decrease in leukocyte attachment”.

Consider Heparin, for which, in test [2] (Baseline), the CD11b was found to be 22.55 ± 1.06 MFI × 10^3, the IL-10 amounted to 0.11 ± 0.07 ng/mL, the IL-8 is listed as 0.0 ± 0^ ng/mL and the IL-6 was 0.18 ± 0.04 ng/mL. Also, in test [2] (Stimulated (LPS, fMLF)), the CD11b is 53.43 ± 3.12 MFI × 10^3, the IL-10 was 3.74 ± 0.94 ng/mL, the IL-8 is 34.18 ± 6.66 ng/mL and the IL-6 is given as 65.42 ± 19.77 ng/mL.

(Values after patent US10695482B2, “Cartridge and method for increasing myocardial function” (SeaStar Medical, Inc., priority 2011, dated 2020).)
